Reference: ChEMBL document CHEMBL3046027, “In vitro and in vivo antifungal activity of synthetic pure isothiocyanates against Sclerotinia sclerotiorum” (Pest Manag Sci, 2011)

What was measured:
Sclerotinia sclerotiorum [1] = assay: In vivo antifungal Sclerotinia sclerotiorum in Pepper (Capsicum annuum L. cv. Sera Demre) assessed as inhibition of mycelial growth in volatile phase at 134 umol/L measured after 10 to 14 weeks; assay type: functional
Sclerotinia sclerotiorum [2] = assay: In vivo antifungal Sclerotinia sclerotiorum in Pepper (Capsicum annuum L. cv. Sera Demre) assessed as inhibition of mycelial growth in volatile phase at 67 umol/L measured after 10 to 14 weeks; assay type: functional
Sclerotinia sclerotiorum [3] = assay: Antifungal activity against Sclerotinia sclerotiorum assessed as inhibition of mycelial growth in volatile phase at 670 umol/l measured at 20 degC after 5 days; assay type: functional; conditions: 120 h, read-out: GI
Sclerotinia sclerotiorum [4] = assay: Antifungal activity against Sclerotinia sclerotiorum assessed as inhibition of mycelial growth in volatile phase at 469 umol/l measured at 20 degC after 5 days; assay type: functional; conditions: 120 h, read-out: GI
Sclerotinia sclerotiorum [5] = assay: Antifungal activity against Sclerotinia sclerotiorum assessed as inhibition of mycelial growth in volatile phase at 335 umol/l measured at 20 degC after 5 days; assay type: functional; conditions: 120 h, read-out: GI
Sclerotinia sclerotiorum [6] = assay: Antifungal activity against Sclerotinia sclerotiorum assessed as inhibition of mycelial growth in volatile phase at 67 umol/l measured at 20 degC after 5 days; assay type: functional; conditions: 120 h, read-out: GI
Sclerotinia sclerotiorum [7] = assay: Antifungal activity against Sclerotinia sclerotiorum assessed as inhibition of mycelial growth in volatile phase at 34 umol/l measured at 20 degC after 5 days; assay type: functional; conditions: 120 h, read-out: GI
Sclerotinia sclerotiorum [8] = assay: Antifungal activity against Sclerotinia sclerotiorum assessed as inhibition of mycelial growth in contact phase at 670 umol/l measured at 20 degC after 5 days; assay type: functional; conditions: 120 h, read-out: GI
Sclerotinia sclerotiorum [9] = assay: Antifungal activity against Sclerotinia sclerotiorum assessed as inhibition of mycelial growth in contact phase at 1340 umol/l measured at 20 degC after 5 days; assay type: functional; conditions: 120 h, read-out: GI
Sclerotinia sclerotiorum [10] = assay: Antifungal activity against Sclerotinia sclerotiorum assessed as inhibition of mycelial growth in contact phase at 603 umol/l measured at 20 degC after 5 days; assay type: functional; conditions: 120 h, read-out: GI
Sclerotinia sclerotiorum [11] = assay: Antifungal activity against Sclerotinia sclerotiorum assessed as inhibition of mycelial growth in contact phase at 469 umol/l measured at 20 degC after 5 days; assay type: functional; conditions: 120 h, read-out: GI
Sclerotinia sclerotiorum [12] = assay: Antifungal activity against Sclerotinia sclerotiorum assessed as inhibition of mycelial growth in contact phase at 2011 umol/l measured at 20 degC after 5 days; assay type: functional; conditions: 120 h, read-out: GI
Sclerotinia sclerotiorum [13] = assay: Fungistatic activity in Sclerotinia sclerotiorum assessed as inhibition of carpogenic germination in volatile phase at 670 umol/l measured at 20 degC after 5 days relative to control; assay type: functional; conditions: 120 h
Sclerotinia sclerotiorum [14] = assay: Fungistatic activity in Sclerotinia sclerotiorum assessed as inhibition of carpogenic germination in volatile phase at 335 umol/l measured at 20 degC after 5 days relative to control; assay type: functional; conditions: 120 h
Sclerotinia sclerotiorum [15] = assay: Fungistatic activity in Sclerotinia sclerotiorum assessed as inhibition of carpogenic germination in volatile phase at 67 umol/l measured at 20 degC after 5 days relative to control; assay type: functional; conditions: 120 h
Sclerotinia sclerotiorum [16] = assay: Fungistatic activity in Sclerotinia sclerotiorum assessed as inhibition of carpogenic germination in volatile phase at 34 umol/l measured at 20 degC after 5 days relative to control; assay type: functional; conditions: 120 h
Sclerotinia sclerotiorum [17] = assay: Fungistatic activity in Sclerotinia sclerotiorum assessed as sclerotial viability measured at 20 degC after 5 days; assay type: functional, organism-based; conditions: 120 h
Sclerotinia sclerotiorum [18] = assay: Fungistatic activity in Sclerotinia sclerotiorum assessed as inhibition of mycelial growth in volatile phase measured at 20 degC after 5 days; assay type: functional, organism-based; conditions: 120 h
Sclerotinia sclerotiorum [19] = assay: Fungistatic activity in Sclerotinia sclerotiorum assessed as inhibition of mycelial growth in contact phase measured at 20 degC after 5 days; assay type: functional, organism-based; conditions: 120 h
Sclerotinia sclerotiorum [20] = assay: Fungitoxic activity in Sclerotinia sclerotiorum assessed as viability in volatile phase at 670 umol/l measured at 20 degC after 5 days relative to control; assay type: functional; conditions: 120 h, read-out: GI
Sclerotinia sclerotiorum [21] = assay: Fungistatic activity in Sclerotinia sclerotiorum assessed as viability in volatile phase at 335 umol/l measured at 20 degC after 5 days relative to control; assay type: functional; conditions: 120 h, read-out: GI
Sclerotinia sclerotiorum [22] = assay: Fungistatic activity in Sclerotinia sclerotiorum assessed as inhibition of mycelial growth in contact phase at 2011 umol/l measured at 20 degC after 5 days relative to control; assay type: functional; conditions: 120 h, read-out: GI
Sclerotinia sclerotiorum [23] = assay: Fungitoxic activity in Sclerotinia sclerotiorum assessed as inhibition of mycelial growth in volatile phase at 469 umol/l measured at 20 degC after 5 days relative to control; assay type: functional; conditions: 120 h, read-out: GI
Sclerotinia sclerotiorum [24] = assay: Antifungal activity against Sclerotinia sclerotiorum assessed as inhibition of germination in volatile phase at 670 umol/l measured at 20 degC after 5 days; assay type: functional; conditions: 120 h
Sclerotinia sclerotiorum [25] = assay: Antifungal activity against Sclerotinia sclerotiorum assessed as inhibition of germination in volatile phase at 335 umol/l measured at 20 degC after 5 days; assay type: functional; conditions: 120 h
Sclerotinia sclerotiorum [26] = assay: Antifungal activity against Sclerotinia sclerotiorum assessed as inhibition of germination in volatile phase at 201 umol/l measured at 20 degC after 5 days; assay type: functional; conditions: 120 h
Sclerotinia sclerotiorum [27] = assay: Antifungal activity against Sclerotinia sclerotiorum assessed as inhibition of germination in volatile phase at 67 umol/l measured at 20 degC after 5 days; assay type: functional; conditions: 120 h
Sclerotinia sclerotiorum [28] = assay: Antifungal activity against Sclerotinia sclerotiorum assessed as inhibition of germination in volatile phase at 34 umol/l measured at 20 degC after 5 days; assay type: functional; conditions: 120 h

SMILES: S=C=NCCc1ccccc1 [PHENETHYLISOTHIOCYANATE]
- inhibition in vivo at 134 µM (Sclerotinia sclerotiorum [1]): 76.7%
- inhibition in vivo at 67 µM (Sclerotinia sclerotiorum [2]): 70%
- inhibition of growth at 670 µM (Sclerotinia sclerotiorum [3]): 100%
- inhibition of growth at 469 µM (Sclerotinia sclerotiorum [4]): 64%
- inhibition of growth at 335 µM (Sclerotinia sclerotiorum [5]): 51.3%
- inhibition of growth at 67 µM (Sclerotinia sclerotiorum [6]): 42.7%
- inhibition of growth at 34 µM (Sclerotinia sclerotiorum [7]): 24.3%
- inhibition of growth at 670 µM (Sclerotinia sclerotiorum [8]): 59.7%
- inhibition of growth at 1340 µM (Sclerotinia sclerotiorum [9]): 92.5%
- inhibition of growth at 603 µM (Sclerotinia sclerotiorum [10]): 24.3%
- inhibition of growth at 469 µM (Sclerotinia sclerotiorum [11]): 5%
- inhibition of growth at 2011 µM (Sclerotinia sclerotiorum [12]): 100%
- inhibition at 670 µM (Sclerotinia sclerotiorum [13]): 82.5%
- inhibition at 335 µM (Sclerotinia sclerotiorum [14]): 57.5%
- inhibition at 67 µM (Sclerotinia sclerotiorum [15]): 55%
- inhibition at 34 µM (Sclerotinia sclerotiorum [16]): 12.5%
- EC50 (Sclerotinia sclerotiorum [17]): 114 µM
- EC50 (Sclerotinia sclerotiorum [18]): 144 µM
- EC50 (Sclerotinia sclerotiorum [19]): 650 µM
- inhibition of growth at 670 µM (Sclerotinia sclerotiorum [20]): 100%
- inhibition of growth at 335 µM (Sclerotinia sclerotiorum [21]): 100%
- inhibition of growth at 2011 µM (Sclerotinia sclerotiorum [22]): 100%
- inhibition of growth at 469 µM (Sclerotinia sclerotiorum [23]): 100%
- inhibition at 670 µM (Sclerotinia sclerotiorum [24]): 100%
- inhibition at 335 µM (Sclerotinia sclerotiorum [25]): 100%
- inhibition at 201 µM (Sclerotinia sclerotiorum [26]): 66.7%
- inhibition at 67 µM (Sclerotinia sclerotiorum [27]): 26.7%
- inhibition at 34 µM (Sclerotinia sclerotiorum [28]): 6.7%
